Experimental data from patent US9751837B2, “Kinase inhibitors” (RESPIVERT LIMITED, priority 2014, dated 2017).
Values after ≈ are worked out from the molar mass of the structure shown.

Key:
Jurkat cells = test: Cell cytotoxicity assay (r); assay type: cell-based, human; conditions: 24 hours
Protocol: 1×10^5 Jurkat cells (immortalised human T lymphocytes) are added to the appropriate number of wells of a 96 well plate in 100 μL of media (RPMI supplemented with 10% foetal bovine serum). 1 μL of DMSO control (final concentration 1.0% v/v) or test compound (final concentration 20, 5 or 1 μg/mL) is added to the wells and incubated at 37° C., 5% CO2. After 24 hours, the plate is centrifuged at 1200 rpm for 3 minutes and the supernatant discarded. Cells are then resuspended in 150 μL (final concentration 7.5 μg/mL) of propidium iodide (PI) in PBS and incubated at 37° C., 5% CO2 for 15 minutes. After 15 minutes, cells are analysed by flow cytometry (BD accuri) using the FL3 window. The % viability is calculated as the % of cells that are PI negative in the test wells normalised to the DMSO control.

[1] = Solubility in fasted-state simulated colonic fluid (FaSSCoF) at pH 6.5; assay type: physicochemical; conditions: 25 °C, pH 6.5, fassgf or other biorelevant, thermodynamic from solid
Procedure, shortened: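 Compounds were suspended at up to 2-10 mg/mL in pH 6.5 Tris/maleate FaSSCoF containing a five-bile-acid mixture, phosphatidylcholine, palmitic acid and BSA. After 24 h equilibration at 25° C the suspension was filtered and the filtrate quantified by HPLC peak area against a standard.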

[2] = pH 6.5 FaSSCoF Solubility (mg/mL) Run 1
[3] = pH 6.5 FaSSCoF Solubility (mg/mL) Run 2

## COc1cc(Nc2nccc(Oc3ccc(NC(=O)Nc4cc(C(C)(C)C)cc(NS(C)(=O)=O)c4OC)c4ccccc34)n2)ccc1C(=O)NCCCN1CCN(C)CC1 [17(ap), 4-((4-((4-(3-(5-(tert-Butyl)-2-methoxy-3-(methylsulfonamido)phenyl)ureido)naphthalen-1-yl)oxy)pyrimidin-2-yl)amino)-2-methoxy-N-(3-(4-methylpiperazin-1-yl)propyl)benzamide]
Jurkat cells
  % Viability at 20 μg/mL: 0.6%
[1]; [2]
  solubility thermodynamic at 24 h: < 0.001 mg/mL
[1]; [3]
  solubility thermodynamic at 24 h: < 0.001 mg/mL

## COc1cc(Nc2nccc(Oc3ccc(NC(=O)Nc4cc(C(C)(C)C)cc(NS(C)(=O)=O)c4OC)c4ccccc34)n2)ccc1C(=O)NCCN1CCN(C)CC1 [17(aq), 4-((4-((4-(3-(5-(tert-Butyl)-2-methoxy-3-(methylsulfonamido)phenyl)ureido)naphthalen-1-yl)oxy)pyrimidin-2-yl)amino)-2-methoxy-N-(2-(4-methylpiperazin-1-yl)ethyl)benzamide]
Jurkat cells
  % Viability at 5 μg/mL: 0.2%
  % Viability at 20 μg/mL: 1.3%
[1]; [2]
  solubility thermodynamic at 24 h: < 0.001 mg/mL
[1]; [3]
  solubility thermodynamic at 24 h: < 0.001 mg/mL

## COc1cc(Nc2cc(Oc3ccc(NC(=O)Nc4cc(C(C)(C)C)cc(NS(C)(=O)=O)c4OC)c4ccccc34)ccn2)cc(OC)c1C(=O)NCCCN1CCN(C)CC1 [17(au), 4-((4-((4-(3-(5-(tert-Butyl)-2-methoxy-3-(methylsulfonamido)phenyl)ureido)naphthalen-1-yl)oxy)pyridin-2-yl)amino)-2,6-dimethoxy-N-(3-(4-methylpiperazin-1-yl)propyl)benzamide]
Jurkat cells; 1 μg/mL
  % Viability at 1 μg/mL: 94.0%
[1]; [2]
  solubility thermodynamic at 24 h: 0.032 mg/mL (≈ 36.8 µM)
[1]; [3]
  solubility thermodynamic at 24 h: 0.023 mg/mL (≈ 26.5 µM)

## COc1cc(Nc2nccc(Oc3ccc(NC(=O)Nc4cc(C(C)(C)C)cc(NS(C)(=O)=O)c4OC)c4ccccc34)n2)cc(OC)c1C(=O)NCCN1CCN(C)CC1 [17(az), 4-((4-((4-(3-(5-(tert-Butyl)-2-methoxy-3-(methylsulfonamido)phenyl)ureido)naphthalen-1-yl)oxy)pyrimidin-2-yl)amino)-2,6-dimethoxy-N-(2-(4-methylpiperazin-1-yl)ethyl)benzamide]
Jurkat cells
  % Viability at 20 μg/mL: 4.5%
[1]; [2]
  solubility thermodynamic at 24 h: 0.001 mg/mL (≈ 1.17 µM)
[1]; [3]
  solubility thermodynamic at 24 h: 0.001 mg/mL (≈ 1.17 µM)

## COc1cc(Nc2cc(Oc3ccc(NC(=O)Nc4cc(C(C)(C)C)cc(NS(C)(=O)=O)c4OC)c4ccccc34)ccn2)ccc1S(=O)(=O)N(C)CCN1CCN(C)CC1 [17(bb), 4-((4-((4-(3-(5-(tert-Butyl)-2-methoxy-3-(methylsulfonamido)phenyl)ureido)naphthalen-1-yl)oxy)pyridin-2-yl)amino)-2-methoxy-N-methyl-N-(2-(4-methylpiperazin-1-yl)ethyl)benzenesulfonamide]
Jurkat cells
  % Viability at 20 μg/mL: 0.2%
[1]; [2]
  solubility thermodynamic at 24 h: < 0.001 mg/mL
[1]; [3]
  solubility thermodynamic at 24 h: < 0.001 mg/mL

## COc1cc(Nc2cc(Oc3ccc(NC(=O)Nc4cc(C(C)(C)C)cc(NS(C)(=O)=O)c4OC)c4ccccc34)ccn2)ccc1C(=O)NCCN1CCN(C(C)C)CC1 [17(bf), 4-((4-((4-(3-(5-(tert-Butyl)-2-methoxy-3-(methylsulfonamido)phenyl)ureido)naphthalen-1-yl)oxy)pyridin-2-yl)amino)-N-(2-(4-isopropylpiperazin-1-yl)ethyl)-2-methoxybenzamide]
Jurkat cells
  % Viability at 5 μg/mL: 1.5%
  % Viability at 20 μg/mL: 0.6%
[1]; [2]
  solubility thermodynamic at 24 h: 0.013 mg/mL (≈ 15.2 µM)
[1]; [3]
  solubility thermodynamic at 24 h: 0.015 mg/mL (≈ 17.6 µM)

## COc1cc(Nc2cc(Oc3ccc(NC(=O)Nc4cc(C(C)(C)C)cc(NS(C)(=O)=O)c4OC)c4ccccc34)ccn2)ccc1C(=O)NCCC1(O)CCN(C)CC1 [17(bg), 4-((4-((4-(3-(5-(tert-Butyl)-2-methoxy-3-(methylsulfonamido)phenyl)ureido)naphthalen-1-yl)oxy)pyridin-2-yl)amino)-N-(2-(4-hydroxy-1-methylpiperidin-4-yl)ethyl)-2-methoxy benzamide]
Jurkat cells
  % Viability at 5 μg/mL: 60.0%
  % Viability at 20 μg/mL: 0.3%
[1]; [2]
  solubility thermodynamic at 24 h: 0.016 mg/mL (≈ 19 µM)
[1]; [3]
  solubility thermodynamic at 24 h: 0.019 mg/mL (≈ 22.6 µM)
